# Measurements: a melting point compilation (Tetko et al.; mined from patent text by program, amines drawn as free bases though some values may be those of a salt)
row,melting point,Compound
1,112 to 114 °C,CN(C)C(=O)CC1(C)OCCC2=C1c1ccccc1C2 (centres undefined)
2,75 to 77 °C,Cc1cc(N=CN(C)C)c(C)cc1Cc1cccc(C(F)(F)F)c1
3,91 to 92 °C,Cc1nc(C(O)(c2nc(C)c(C)s2)C(C)(C)C)sc1C
4,157 to 158 °C,O=C1CC(c2ccccc2)CN1C(=O)c1ccc(Cl)cc1 (centres undefined)
5,166 to 167 °C,CCCCN(CC(O)C(Cc1ccccc1)NC(=O)C(CC(N)=O)NC(=O)NCc1ccccc1)C(=O)NC(C)(C)C (centres undefined)
6,160 °C,CCCC(CO)n1cnc(C(N)=O)c1 (centres undefined)
7,190 to 191 °C,O=C(O)COc1ccc(C(=O)C=Cc2ccccc2)c(Cl)c1Cl
8,68 to 68.5 °C,"OCC1CN(Cc2ccccc2)CC=C1c1ccc(F)cc1 (single isomer, unassigned; (+))"
9,126 to 128 °C,O=C(COc1ccc(CCNCC(O)COc2ccccc2)cc1)NO (centres undefined)
10,103 to 106 °C,CCCC(O)c1cccc(NC(=O)OCc2ccccc2)c1 (centres undefined)
11,117 to 118 °C,COc1cc(-c2nc(-n3c(C)ccc3C)sc2SCC2CCCCC2)c(OC)cc1C
12,138 to 140 °C,CC1(C)COC(CCCc2ccc(NC=NO)cc2)OC1
13,140 to 141 °C,CC[C@H](C)[C@H](NC(=O)O[C@@H](CC(C)C)C(=O)OCc1ccccc1)C(N)=O
14,41 to 44 °C,CCCCCCCCCCCCCCCCOCCSCCOC(=O)N(Cc1ccccn1)C(C)=O
15,150 to 153 °C,Nc1nc2ccccc2c2c1ncn2CCCCNC(=O)c1ccc(Cn2c(N3CCCC3)nc3ccccc32)cc1
16,135 to 136 °C,CCCCCC(CC(=O)Nc1cc(C(N)=O)ccc1C(C)(C)C)c1ccc(OCCCOCC)cc1OC (centres undefined)
17,98 to 100 °C,CNc1cc2c(cc1Cl)CCN(C)C[C@@H]2c1ccccc1
18,159 to 160 °C,CS(=O)(=O)c1ccc(C2=C(c3ccccc3)C(=O)OC23CCC3)cc1
19,154 to 156 °C,CC(=NC(C#N)=C(N)C#N)c1ccc(Cl)cc1
20,110 to 112 °C,COc1ccccc1OCC1SCCN1C(=S)CC(=O)c1cc(OC)c(OC)c(OC)c1 (centres undefined)
21,76 to 77 °C,CN(C)CCOC(=O)C(=O)c1ccc(OCCOc2ccc3ccccc3c2)s1
22,144 to 147 °C,Cc1ccccc1-c1cn(C)cc(-c2cccc(C(F)(F)F)c2)c1=O
23,267 to 269 °C,O=c1[nH]c2ccc(Cl)cc2c(-c2ccccc2)[n+]1[O-]
24,154 °C,CS(=O)(=O)NCCNc1ccc([N+](=O)[O-])cc1

row,melting point,Compound
1,109 to 110 °C,CC(=O)/C(=N/O[C@H]1CC[C@H](C(=O)N(C)C)CC1)C(=O)OC(C)(C)C
2,95 to 97 °C,COc1ccc(-n2nc(CO)cc2-c2ccc(Cl)cc2)cc1
3,167 to 168 °C,COc1cc(CCCCC2OC(=O)NC2=O)ccc1OCc1csc(/C=C/c2ccccc2)n1 (centres undefined)
4,130 to 138 °C,C[C@H]1Oc2cccc(F)c2N(C)C(=O)[C@H]1NC(=O)OC(C)(C)C
5,164 to 165 °C,CCc1c(CNc2cccc(N)n2)c(CC)c(CNc2cccc(N)n2)c(CC)c1CNc1cccc(N)n1
6,159 to 161 °C,Cc1oncc1CN1C(=O)C2(COc3cc4c(cc32)OCO4)c2ccccc21 (centres undefined)
7,134 to 136 °C,COC(=O)c1ccc(C(=O)O)cc1C
8,58 to 66 °C,COc1cccc(C(c2cccc(OC)c2)C(Nc2nc(OC)cc(OC)n2)C(=O)O)c1 (centres undefined)
9,> 300 °C,COc1ccc(-c2nc3ncn(C)c(=S)n3n2)cc1
10,96 to 97 °C,CCCCCCCCCCN(O)C(=O)NC
11,128 to 130 °C,O=C(O)CC[C@@H](Cc1ccc(OCc2ccccc2)cc1)NC(=O)CCCCCCc1ccccc1
12,222 to 224 °C,O=C(O)c1nn(-c2ccc(Cl)cc2Cl)c(-c2ccc(Cl)cc2)c1Br
13,256 to 257 °C,Cc1cnc(N2CCC(c3ccc(S(N)(=O)=O)cc3)CC2)n1C
14,226 to 227 °C,O=C(O)c1ccc(F)c(F)c1Nc1ccc(I)cc1Cl
15,255 to 257 °C,CS(=O)(=O)Nc1cccc(Nc2nc(OC3CCOC3)c3nc[nH]c3n2)c1 (centres undefined)
16,110 °C,O=[N+]([O-])c1cc(-c2cnc3ccccn23)cc(O)c1O
17,240 to 241 °C,O=C1C(=O)c2ccc(-c3ccccc3)cc2C2=C1SCC1(CCN(C(=O)c3cccc(Cl)c3)CC1)O2
18,176 to 182 °C,CC(C)c1ccc(-n2c(CC(=O)O)c(C(=O)O)c3cc(Oc4cccc(Cl)c4)ccc32)cc1
19,142 to 143 °C,Cc1oc(-c2ccc(C(F)(F)F)cc2)nc1COc1cccc(Cn2oc(=O)[nH]c2=O)c1
20,195 °C,CC(=O)OC1CSC(Oc2cccc(-c3c(C)n[nH]c3C)c2)C(OC(C)=O)C1OC(C)=O (centres undefined)
21,80 to 82 °C,Cc1ccc(C=Cc2ccccc2C(=O)O)cc1
22,216 to 217 °C,COC(=O)C1CC(=NO)c2c(Cl)cc(Cl)cc2N1 (centres undefined)
23,167 to 168 °C,Cc1c(NC(=O)c2ccc(OC[C@@H]3CCCO3)cc2F)ccc2cc(CNCC(C)(C)O)cnc12
24,162 to 163 °C,CC1=NC=CC(=O)C1OCc1ccccc1 (centres undefined)

row,melting point,Compound
1,175 to 177 °C,CCCCc1ncc(/C=C(\Cc2cccs2)C(=O)O)n1Cc1ccccc1Cl
2,144 °C,N#CC(Nc1ccccc1C(=O)C1CC1)c1c(Cl)cccc1Cl (centres undefined)
3,106 to 109 °C,COc1ccc2c(c1)-c1noc(N3CCCNCC3)c1CC2
4,192 to 193 °C,O=C(Nc1ccc(F)nc1)N1CCN(c2ccnc(-c3cccc(F)c3F)n2)CC1
5,139 to 141 °C,CNC(=O)N1CC(Oc2ccc(F)cc2Cl)C1
6,77 to 78 °C,CCOC(=O)COC(=O)c1cc(NC(=O)OCc2ccccc2)ccc1OCC(=O)OCC
7,152 to 160 °C,COC(=O)CC[C@H](NC(=O)c1ccc(CCC2CNc3nc(NC(=O)C(C)(C)C)nc(O)c3C2)s1)C(=O)OC (some centres undefined)
8,228 to 230 °C,O=C(NC(=O)c1c(Cl)cccc1Cl)Nc1ccc(Br)cn1
9,64 to 66 °C,CCCCCCCCCCCCCCN(O)C(=O)N(C)C
10,225 to 226 °C,CS(=O)(=O)c1ccc(-n2cnc3ccc(-c4nnc(CCc5cccc(C#N)c5)o4)cc32)cc1
11,159 to 160 °C,CCc1nc(C(=O)NCCc2ccc(S(N)(=O)=O)cc2)no1
12,178 °C,O=C(/C=C/c1cccc(S(=O)(=O)N2CCN(C/C=C/c3ccccc3)CC2)c1)NO
13,135 to 136 °C,O=c1cc(-c2ccccc2)oc2ccc(OCCCCCCCN3CCC(O)CC3)cc12
14,175 to 177 °C,O=C(NN1CCCCC1)NS(=O)(=O)C=Cc1ccccc1
15,89 °C,CON(C)C(=O)CC(c1cccc(Br)c1)c1ccccc1C (centres undefined)
16,31 to 32 °C,COCCCCCCCCCCCCCCSCCC(=O)OC
17,77 to 79 °C,CCOC(=O)C(=O)c1cc(O)c(O)c([N+](=O)[O-])c1
18,97 to 100 °C,CCCCCCCCCCCCCCCCCCOc1ccc(C(=O)O)c(OCCCOc2ccc(O)cc2)c1
19,138 to 140 °C,COC1=CCC(N)(O)C=C1 (centres undefined)
20,82.5 to 83.5 °C,Cc1ccc(S(=O)(=O)N(C)c2ccc(Br)cc2[N+](=O)[O-])cc1
21,182 to 183 °C,CCC(COC)Nc1nc(C)nc(N2CCc3cc(OC)cc(Cl)c32)c1C#N (centres undefined)
22,254 °C,COc1cc(N)c([N+](=O)[O-])cc1C(=O)O
23,204 to 206 °C,COCC(=O)Nc1ccc2ncnc(Nc3cc(Cl)c(Cl)cc3F)c2c1
24,218 to 220 °C,COc1ccc(-c2nc3ccc(C(C)(C)CNC(=O)C(C)C)cc3[nH]2)cc1

row,melting point,Compound
1,95 to 98 °C,CC(C(=O)c1ccco1)N1CCN(c2ccc(CO)c(Cl)c2)CC1 (centres undefined)
2,196 to 198 °C,COC(=O)C1(O)C(=O)Nc2ccc(C(F)(F)F)cc2CC1c1ccc(OC)cc1 (centres undefined)
3,102 °C,O=C1CCN(C(=O)c2cc(C(F)(F)F)cc(C(F)(F)F)c2)C(Cc2ccccc2)C1 (centres undefined)
4,166 to 168 °C,O=S1(=O)N=CN(C2CC2)c2c(F)cc(F)c(F)c21
5,96 to 98 °C,COc1ccc(CS[C@H]2C[C@@H](C(=O)O)N(C(=O)OCc3ccc([N+](=O)[O-])cc3)C2)cc1
6,231 to 238 °C,C=CC[C@H](C(N)=O)[C@@H](CC(C)C)C(=O)NC1N=C(N2CCCCC2)c2ccccc2N(C)C1=O (some centres undefined)
7,120 to 122 °C,N#Cc1ccc([C@H]2CC[C@H](O)CC2)cc1
8,261 °C,FC(F)(F)c1ccc(-c2cc(C(F)(F)F)n3ncc(-c4ccncc4)c3n2)cc1
9,216 to 217 °C,O=c1[nH]cc(Cc2cccnc2)cc1[N+](=O)[O-]
10,134 to 135 °C,CC(C)(C)NC(=O)[C@@H]1CN(C(=O)OC(C)(C)C)CCN1C(=O)OCc1ccccc1
11,233 to 234 °C,CC12CCC(=O)C=C1CCC1C2CCC2(C)C1CCC2(O)C(N)=O (centres undefined)
12,130 °C,OCCCc1cn(C(c2ccccc2)(c2ccccc2)c2ccccc2)cn1
13,215 to 220 °C,COC(=O)c1ccc(C=NNc2cc(C(C)(C)C)cc(C(C)(C)C)c2)cc1
14,126 to 127 °C,O=C(ON1C(=O)CCC1=O)c1ccco1
15,146 to 147 °C,Cc1nc(Cl)c(S(C)(=O)=O)c(Cl)n1
16,219 to 220 °C,CCc1nc2c(N)nc3cc(CCC(=O)N(C)C)ccc3c2n1CC1CCOCC1
17,99 to 101 °C,CN(C(=O)Nc1nc(OCC(F)(F)F)cc(OCC(F)(F)F)n1)c1ccc(C(F)(F)F)s1
18,121 to 122 °C,CCOC(=O)CNC(=O)N(N(CCCl)S(C)(=O)=O)S(C)(=O)=O
19,146 to 147 °C,CC(=O)N[C@@H]1c2ccccc2C[C@@H]1C (relative stereo)
20,130 to 131 °C,CN(C)C(=O)C=CC(=O)N(C)C
21,238 to 242 °C,Cc1ccc(Br)c(Cl)c1NS(=O)(=O)c1ccccc1C(=O)O

row,Compound,melting point
1,O=C(O)Cc1cccc(NC(=O)NC2C(=O)N(CC(=O)N3CCCC3)c3ccccc3N(c3ccccc3F)C2=O)c1 (centres undefined),197 to 199 °C
2,O=C(CNC(=O)c1ccc(S(=O)(=O)F)cc1)Nc1cccc(-c2cccc3c2/C(=C/c2ccc[nH]2)C(=O)N3)c1,248 to 250 °C
3,CCOCc1nnc2n1-c1ccc(Cl)cc1C(c1ccccc1)=NC2,168 to 170 °C
4,CCOC[C@@H]1[C@H](c2ccc(Cl)c(Cl)c2)C[C@H]2CC[C@@H]1N2C,52.5 to 54.5 °C
5,OC(c1ccccc1)(c1ccc(F)cc1)C1CCNCC1 (centres undefined),144 to 146 °C
6,O=C1NC(=O)C(=Cc2cc(O)c(O)c([N+](=O)[O-])c2)C(=O)N1,269 to 272 °C
